Consider six compounds from ChEMBL document CHEMBL5724914, “Linking interpersonal differences in gut microbiota composition and drug biotransformation activity” (2024).

A short description of data set [1]: The drug is tested on Z-029 corresponding to rat gut metagenome with ENA study accession number: PRJEB37062 and ENA sample accession number: ERS12561828 for biotransformation under anaerobic condition. The drug concentrations were measured over 9 timepoints collected between 0 and 24 hours of incubation by liquid-chromatography-coupled mass spectrometry (LC–MS). Conditions: 2 µM.

Data set [2] can be described thus: The drug is tested on Z-025 corresponding to rabbit gut metagenome with ENA study accession number: PRJEB37062 and ENA sample accession number: ERS12561824 for biotransformation under anaerobic condition. The drug concentrations were measured over 9 timepoints collected between 0 and 24 hours of incubation by liquid-chromatography-coupled mass spectrometry (LC–MS). Conditions: 2 µM.

A short description of data set [3]: The drug is tested on Z-022 corresponding to mouse gut metagenome with ENA study accession number: PRJEB37062 and ENA sample accession number: ERS12561821 for biotransformation under anaerobic condition. The drug concentrations were measured over 9 timepoints collected between 0 and 24 hours of incubation by liquid-chromatography-coupled mass spectrometry (LC–MS). Conditions: 2 µM.

Data set [4] in a line: The drug is tested on Z-018 corresponding to pig gut metagenome with ENA study accession number: PRJEB37062 and ENA sample accession number: ERS12561817 for biotransformation under anaerobic condition. The drug concentrations were measured over 9 timepoints collected between 0 and 24 hours of incubation by liquid-chromatography-coupled mass spectrometry (LC–MS). The conditions noted are these: 2 µM.

Data set [5] in a line: The drug is tested on Z-013 corresponding to rabbit gut metagenome with ENA study accession number: PRJEB37062 and ENA sample accession number: ERS12561813 for biotransformation under anaerobic condition. The drug concentrations were measured over 9 timepoints collected between 0 and 24 hours of incubation by liquid-chromatography-coupled mass spectrometry (LC–MS). Conditions: 2 µM.

A short description of data set [6]: The drug is tested on Z-012 corresponding to metagenome with ENA study accession number: PRJEB37062 and ENA sample accession number: ERS12561812 for biotransformation under anaerobic condition. The drug concentrations were measured over 9 timepoints collected between 0 and 24 hours of incubation by liquid-chromatography-coupled mass spectrometry (LC–MS). Conditions: 2 µM.

A short description of data set [7]: The drug is tested on Z-011 corresponding to mouse gut metagenome with ENA study accession number: PRJEB37062 and ENA sample accession number: ERS12561811 for biotransformation under anaerobic condition. The drug concentrations were measured over 9 timepoints collected between 0 and 24 hours of incubation by liquid-chromatography-coupled mass spectrometry (LC–MS). The conditions noted are these: 2 µM.

A short description of data set [8]: The drug is tested on Z-001 corresponding to mouse gut metagenome with ENA study accession number: PRJEB37062 and ENA sample accession number: ERS12561801 for biotransformation under anaerobic condition. The drug concentrations were measured over 9 timepoints collected between 0 and 24 hours of incubation by liquid-chromatography-coupled mass spectrometry (LC–MS). Conditions: 2 µM.

A short description of data set [9]: The drug is tested on WLS-310 corresponding to human gut metagenome with ENA study accession number: PRJEB37062 and ENA sample accession number: ERS12561785 for biotransformation under anaerobic condition. The drug concentrations were measured over 9 timepoints collected between 0 and 24 hours of incubation by liquid-chromatography-coupled mass spectrometry (LC–MS). The conditions noted are these: 2 µM.

The nature of data set [10]: The drug is tested on WLS-077 corresponding to human gut metagenome with ENA study accession number: PRJEB37062 and ENA sample accession number: ERS12561750 for biotransformation under anaerobic condition. The drug concentrations were measured over 9 timepoints collected between 0 and 24 hours of incubation by liquid-chromatography-coupled mass spectrometry (LC–MS). Conditions: 2 µM.

The conditions of data set [11]: human gut metagenome, 24 h, 2 µM.
The conditions of data set [12]: human gut metagenome, 24 h, 2 µM. This is another data set of the same source.
For data set [13] the following is noted: human gut metagenome, 24 h, 2 µM. This is another data set of the same source.
The conditions of data set [14]: human gut metagenome, 24 h, 2 µM. This is another data set of the same source.
For data set [15] the following is noted: human gut metagenome, 24 h, 2 µM. This is another data set of the same source.
The conditions of data set [16]: human gut metagenome, 24 h, 2 µM. The source holds these as a separate data set.
For data set [17] the following is noted: human gut metagenome, 24 h, 2 µM. The source holds these as a separate data set.
For data set [18] the following is noted: human gut metagenome, 24 h, 2 µM. This is another data set of the same source.
The conditions of data set [19]: human gut metagenome, 24 h, 2 µM. The source holds these as a separate data set.
The conditions of data set [20]: human gut metagenome, 24 h, 2 µM. This is another data set of the same source.
Further: call rule not given here.

As to `CC1Cc2ccccc2N1NC(=O)c1ccc(Cl)c(S(N)(=O)=O)c1` (stereo not given) [INDAPAMIDE], the “Bacterial Biotransformation” value in data set [1], in [2], in data set [3], in data set [4], in [5] and in data set [6] was “Compound NOT metabolized” each time. In addition, the “Bacterial Biotransformation” value in data set [7], in data set [8], in data set [9], in data set [10], in [11] and in data set [12] was “Compound NOT metabolized” in each case. The “Bacterial Biotransformation” value in [13], in data set [14], in data set [15], in data set [16], in data set [17] and in data set [18] was “Compound NOT metabolized” throughout. The “Bacterial Biotransformation” value in data set [19] and in data set [20] was “Compound NOT metabolized” throughout.
For `CCN(CC)C(=O)C1(c2ccccc2)CC1CN` (stereo not given), the “Bacterial Biotransformation” value in data set [1], in [2], in data set [3], in data set [4], in data set [5] and in data set [6] was “Compound NOT metabolized” in each case. In addition, the “Bacterial Biotransformation” value in [7], in data set [8], in [9], in data set [10], in data set [11] and in data set [12] was “Compound NOT metabolized” each time. The “Bacterial Biotransformation” value in data set [13], in data set [14], in data set [15], in data set [16], in [17] and in data set [18] was “Compound NOT metabolized” throughout. The “Bacterial Biotransformation” value in [19] and in data set [20] was “Compound NOT metabolized” throughout.
On to `CCN(CC)CCNC(=O)c1ccc(NC(C)=O)cc1` [ACECAINIDE], for which the “Bacterial Biotransformation” value in data set [1], in data set [2], in data set [3], in [4], in data set [5] and in data set [6] was “Compound NOT metabolized” each time. The “Bacterial Biotransformation” value is given as “Compound NOT metabolized” in data set [7]; “Compound NOT metabolized” in [8]; “Compound metabolized” in [9]; “Compound NOT metabolized” in [10]; “Compound NOT metabolized” in data set [11]; “Compound metabolized” in [12]. The “Bacterial Biotransformation” value in data set [13], in data set [14], in [15], in data set [16], in [17] and in data set [18] was “Compound NOT metabolized” in each case. The “Bacterial Biotransformation” value in [19] and in data set [20] was “Compound NOT metabolized” each time.
For `C[N+]12CCC(CC1)C(OC(=O)C(O)(c1ccccc1)c1ccccc1)C2.[Br-]` (stereo not given) [CLIDINIUM BROMIDE], the “Bacterial Biotransformation” value in data set [1] was “Compound NOT metabolized”; in [2], “Compound NOT metabolized”; in [3], “Compound NOT metabolized”; in data set [4], “Compound metabolized”; in [5], “Compound NOT metabolized”; in data set [6], “Compound NOT metabolized”. In addition, the “Bacterial Biotransformation” value in [7] is reported as “Compound NOT metabolized”; in [8] it was “Compound metabolized”; in data set [9] it was “Compound NOT metabolized”; in data set [10], “Compound NOT metabolized”; in [11] it was “Compound NOT metabolized”; in data set [12] it was “Compound metabolized”. Also, the “Bacterial Biotransformation” value in data set [13], in [14], in data set [15], in data set [16], in data set [17] and in data set [18] was “Compound NOT metabolized” in each case. For the same compound, the “Bacterial Biotransformation” value in data set [19] and in data set [20] was “Compound NOT metabolized” throughout.
Regarding `Clc1cccc(Cl)c1N=C1NCCN1` [CLONIDINE], the “Bacterial Biotransformation” value in data set [1] is reported as “Compound NOT metabolized”; in data set [2], “Compound NOT metabolized”; in data set [3], “Compound NOT metabolized”; in data set [4] it was “Compound metabolized”; in [5] it was “Compound NOT metabolized”; in data set [6], “Compound metabolized”. In addition, the “Bacterial Biotransformation” value in data set [7] is “Compound metabolized”; in [8], “Compound metabolized”; in data set [9] it was “Compound metabolized”; in data set [10] it was “Compound NOT metabolized”; in data set [11], “Compound NOT metabolized”; in data set [12], “Compound metabolized”. For the same compound, the “Bacterial Biotransformation” value in data set [13] is reported as “Compound NOT metabolized”; in data set [14] it was “Compound metabolized”; in data set [15], “Compound NOT metabolized”; in [16] it was “Compound metabolized”; in [17], “Compound NOT metabolized”; in data set [18], “Compound NOT metabolized”. The “Bacterial Biotransformation” value in data set [19] and in data set [20] was “Compound NOT metabolized” each time.
`O=C(CCCN1CCC2(CC1)C(=O)NCN2c1ccccc1)c1ccc(F)cc1` [SPIPERONE]: the “Bacterial Biotransformation” value in data set [1], in data set [2], in data set [3], in data set [4], in [5] and in data set [6] was “Compound NOT metabolized” throughout. Further, the “Bacterial Biotransformation” value in [7] was “Compound NOT metabolized”; in data set [8], “Compound NOT metabolized”; in [9], “Compound metabolized”; in data set [10], “Compound NOT metabolized”; in data set [11] it was “Compound metabolized”; in [12] it was “Compound metabolized”. For the same compound, the “Bacterial Biotransformation” value in data set [13], in [14], in data set [15], in data set [16], in [17] and in data set [18] was “Compound NOT metabolized” each time. Besides, the figures for the “Bacterial Biotransformation” value in data set [19] and in data set [20] were “Compound metabolized” and “Compound NOT metabolized”, respectively.
